Calls of active or inactive are those of the source. The calls are words filed in the database; no cut-off is given here.

Assay [1] concerns A-375. Kind of assay: Cell cycle arrest in human A375 cells assessed as accumulation at G2/M phase at IC50 concentration after 48 hrs by propidium iodide staining based flow cytometry (reference value: 8.18 +/- 2.2%). In kind it is functional.
Assay [2] relates to A-375. Kind of assay: Cell cycle arrest in human A375 cells assessed as accumulation at subG1 phase at IC50 concentration after 48 hrs by propidium iodide staining based flow cytometry (reference value: 1.1 +/- 0.4%). It is filed as functional.
In assay [3] the test system is A-375. In words: Cytotoxicity against human A375 cells assessed as reduction in cell viability at IC50 concentration after 24 hrs by calcein AM-dye based assay. It is filed as functional.
For assay [4], the system named is Pseudomonas aeruginosa. In words: Inhibition of planktonic growth of Pseudomonas aeruginosa PA14 cells. In kind it is organism-based.
In assay [5] the test system is Salmonella typhimurium. Kind of assay: Inhibition of planktonic growth of Salmonella typhimurium ATCC 14028. In kind it is organism-based, Salmonella enterica subsp. enterica serovar Typhimurium. As to conditions: Salmonella enterica.
Assay [6] deals with MIA PaCa-2. In words: Cell cycle arrest in human MIAPaCa2 cells assessed as accumulation at subG1 phase at IC50 concentration after 48 hrs by propidium iodide staining based flow cytometry (reference value: 1.53 +/- 0.4%). It is filed as functional.
For assay [7], the system named is MIA PaCa-2. In words: Cytotoxicity against human MIAPaCa2 cells assessed as reduction in cell viability at IC50 concentration after 24 hrs by calcein AM-dye based assay. It is filed as functional.
The test system of assay [8] is A-375. Kind of assay: Antiproliferative activity against human A375 cells after 48 hrs by MTT assay. Particulars: A-375, 48 h. In kind it is functional, cell-based.
The subject of assay [9] is Staphylococcus aureus. In words: Inhibition of planktonic growth of Staphylococcus aureus SH1000. In kind it is organism-based.
Assay [10] relates to A-375. In words: Cell cycle arrest in human A375 cells assessed as accumulation at G0/G1 phase at IC50 concentration after 48 hrs by propidium iodide staining based flow cytometry (reference value: 64.18 +/- 2.6%). It is filed as functional.
In assay [11] the test system is A-375. Kind of assay: Cell cycle arrest in human A375 cells assessed as accumulation at S phase at IC50 concentration after 48 hrs by propidium iodide staining based flow cytometry (reference value: 30.48 +/- 1.4%). In kind it is functional.
Assay [12] has as its system MIA PaCa-2. In words: Cell cycle arrest in human MIAPaCa2 cells assessed as accumulation at G2/M phase at IC50 concentration after 48 hrs by propidium iodide staining based flow cytometry (reference value: 16.66 +/- 0.8%). It is filed as functional.
Assay [13] relates to MIA PaCa-2. In words: Antiproliferative activity against human MIAPaCa2 cells assessed as reduction in colony forming ability at IC50 concentration after 10 to 14 days by crystal violet-staining based assay. In kind it is functional, cell-based.
Assay [14] has as its system MIA PaCa-2. Kind of assay: Cell cycle arrest in human MIAPaCa2 cells assessed as accumulation at G0/G1 phase at IC50 concentration after 48 hrs by propidium iodide staining based flow cytometry (reference value: 66.05 +/- 2.2%). It is filed as functional.
Assay [15] concerns Staphylococcus aureus. Kind of assay: Antibiofilm activity against Staphylococcus aureus SH1000 after 48 hrs by crystal violet staining based method. It is filed as functional.
Assay [16] relates to Salmonella typhimurium. In words: Antibiofilm activity against Salmonella typhimurium ATCC 14028 after 24 hrs by crystal violet staining based method. It is filed as functional, Salmonella enterica subsp. enterica serovar Typhimurium.
Assay [17] concerns MIA PaCa-2. Kind of assay: Antiproliferative activity against human MIAPaCa2 cells after 48 hrs by MTT assay. In kind it is functional, cell-based. As to conditions: MIA PaCa-2, 48 h.
Assay [18] relates to Pseudomonas aeruginosa. In words: Antibiofilm activity against Pseudomonas aeruginosa PA14 after 24 hrs by crystal violet staining based method. In kind it is functional.
In assay [19] the test system is MIA PaCa-2. In words: Cell cycle arrest in human MIAPaCa2 cells assessed as accumulation at S phase at IC50 concentration after 48 hrs by propidium iodide staining based flow cytometry (reference value: 17.29 +/- 1.8%). In kind it is functional.
Assay [20] concerns A-375. Kind of assay: Antiproliferative activity against human A375 cells assessed as reduction in colony forming ability at IC50 concentration after 10 to 14 days by crystal violet-staining based assay. In kind it is functional, cell-based.

On to `Cc1ccc(Cc2nc(N)n(CC(=O)Nc3ccc(C)cc3)c2-c2ccccc2Br)cc1`, for which the Activity was 66.85% in assay [1]; 24.71% in assay [2]; 16.33% in assay [6]; 36.34% in assay [10]; 26.59% in assay [11]; 48.99% in assay [12]. Besides, the Activity is 36.39% in assay [14] and 17.04% in assay [19]. Moreover, the outcome in assay [3], in [7], in [13] and in assay [20] was Active. For the same molecule, the IC50 in assay [4] is 10.9 µM; in assay [5] it was over 400 µM; in [8], 1.3 µM; in assay [9], 5.8 µM; in assay [17], 2.9 µM. Besides, the figures for the MBIC50 in [15], in assay [16] and in [18] were 5.5 µM, 3.6 µM and 191 µM, respectively.
Take `COc1ccc(Cc2nc(N)n(CC(=O)Nc3ccccc3)c2-c2ccccc2Br)cc1`: the Activity in [1] amounted to 55.33%; in assay [2], 19.88%; in assay [6] it was 11.21%; in assay [10], 43.56%; in assay [11], 32.1%; in assay [12] it was 40.45%. Moreover, the Activity was determined as 50.41% in assay [14] and 24.5% in [19]. The outcome in [3], in assay [7], in [13] and in assay [20] was Active. The half-inhibitory concentration (IC50) came to 13.1 µM in [4]; 46.4 µM in [5]; 1.4 µM in assay [8]; 23.3 µM in [9]; 3.2 µM in assay [17]. The values for the MBIC50 in [15], in assay [16] and in [18] were 4.3 µM, 17 µM and 12.6 µM, respectively.
`Cc1ccc(NC(=O)Cn2c(N)nc(CC3CCCCC3)c2-c2ccccc2Br)cc1`: the 50% inhibitory concentration (IC50) in [4] is over 400 µM; in [5], over 400 µM; in [8] it was 17.5 µM; in [9], over 400 µM; in assay [17], 48.8 µM. Besides, the MBIC50 in assay [15], in assay [16] and in assay [18] was over 400 µM each time.
Regarding `Cc1ccc(NC(=O)Cn2c(N)nc(Cc3ccc(C(C)(C)C)cc3)c2-c2ccccc2Br)cc1`, the IC50 in assay [4] is over 400 µM; in assay [5], over 400 µM; in assay [8] it was 1.4 µM; in assay [9], 7.9 µM; in assay [17], 3.4 µM. Also, the MBIC50 was 3.9 µM in [15], 17.6 µM in assay [16] and over 400 µM in assay [18].
With `CCCCCc1nc(N)n(CC(=O)Nc2ccc(C)cc2)c1-c1ccccc1Br`, the IC50 was found to be 76 µM in assay [4]; 200 µM in assay [5]; 4.3 µM in [8]; 33.2 µM in assay [9]; 5.6 µM in [17]. The MBIC50 in assay [15] stood at 29.8 µM; in assay [16] it was 31.5 µM; in assay [18], 42.4 µM.
`Nc1nc(CC2CCCC2)c(-c2ccccc2Br)n1CC(=O)Nc1ccccc1`: the half-maximal inhibitory concentration (IC50) in [4] was over 400 µM; in assay [5] it was over 400 µM; in [8] it was 24.3 µM; in assay [9], over 400 µM; in [17] it was 61.4 µM. Besides, the MBIC50 in assay [15], in assay [16] and in assay [18] was over 400 µM in each case.
As to `CCCCCc1nc(N)n(CC(=O)Nc2ccccc2)c1-c1ccccc1Br`, the IC50 is over 400 µM in assay [4]; over 400 µM in assay [5]; 26.4 µM in assay [8]; over 400 µM in assay [9]; 40.6 µM in assay [17]. Also, the MBIC50 in assay [15] is 21.3 µM; in assay [16], over 400 µM; in assay [18] it was over 400 µM.
Take `CCCCCCCc1nc(N)n(CC(=O)Nc2ccccc2)c1-c1ccccc1Br`: the IC50 in [4] is over 400 µM; in assay [5] it was over 400 µM; in assay [8], 9.2 µM; in assay [9] it was 70.8 µM; in assay [17], 7.9 µM. Also, the MBIC50 in assay [15] was found to be 18.1 µM; in assay [16], 114.8 µM; in assay [18], 221.9 µM.
For `CCCCCCc1nc(N)n(CC(=O)Nc2ccccc2)c1-c1ccccc1Br`, the IC50 is 119 µM in assay [4]; over 400 µM in [5]; 5.7 µM in assay [8]; 16.3 µM in [9]; 8.6 µM in [17]. The values for the MBIC50 in assay [15], in assay [16] and in assay [18] were 6.6 µM, 35.7 µM and 50.7 µM, respectively.
